# In article PMC5761851, “Application of a phenotypic drug discovery strategy to identify biological and chemical starting points for inhibition of TSLP production in lung epithelial cells” (PLoS ONE, 2018):
# Read-outs that look alike come from different tables or passages of the source.
# How the values were obtained:
# [1] = test system: Phosphorylation of Akt in THP1 cells; test: PI3Kδ dependent pAkt phosphorylation in M-CSF stimulated THP-1 cells; type: cell-based
# Protocol: Quantification of enzymatic p38 activity and p38-dependent TNF production in THP-1 cells was performed as previously described. Enzymatic Syk kinase activity assays and Syk dependent LAD2 cells degranulation assays were performed as previously described. PI3Kδ dependent pAkt phosphorylation in macrophage colony-stimulating factor (M-CSF) stimulated THP-1 cells was measured as previously described.
# [2] = target: T1, A1 (Homo sapiens, UniProt P30542); test: BioPrint panel: A1 (h) (agonist); type: binding; settings: 1 micromolar, read-out: percentage of inhibition of activity
# T1 construct: purchased Eurofins Pharma Discovery Services (KinaseProfiler; Cerep BioPrint panel)
# T1 sequence (P30542 whole entry): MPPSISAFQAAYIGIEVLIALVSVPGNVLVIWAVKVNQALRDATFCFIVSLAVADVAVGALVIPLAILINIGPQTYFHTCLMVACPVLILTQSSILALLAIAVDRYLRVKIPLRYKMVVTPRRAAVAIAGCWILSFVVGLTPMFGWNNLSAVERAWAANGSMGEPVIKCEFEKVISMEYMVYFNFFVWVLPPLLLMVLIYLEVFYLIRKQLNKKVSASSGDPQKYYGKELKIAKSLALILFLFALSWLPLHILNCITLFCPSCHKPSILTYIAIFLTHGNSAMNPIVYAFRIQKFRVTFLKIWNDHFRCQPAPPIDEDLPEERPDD
# Source text: (§1) Supplement pone.0189247.s004.xlsx, sheet "Bioprint Selectivity Panel" | column: %
# [3] = target: T2, A2B (Homo sapiens, UniProt P29275); test: BioPrint panel: A2B (h) (antagonist); type: binding; settings: 1 micromolar, read-out: percentage of inhibition of activity
# T2 construct: purchased Eurofins Pharma Discovery Services (KinaseProfiler; Cerep BioPrint panel)
# T2 sequence (P29275 whole entry): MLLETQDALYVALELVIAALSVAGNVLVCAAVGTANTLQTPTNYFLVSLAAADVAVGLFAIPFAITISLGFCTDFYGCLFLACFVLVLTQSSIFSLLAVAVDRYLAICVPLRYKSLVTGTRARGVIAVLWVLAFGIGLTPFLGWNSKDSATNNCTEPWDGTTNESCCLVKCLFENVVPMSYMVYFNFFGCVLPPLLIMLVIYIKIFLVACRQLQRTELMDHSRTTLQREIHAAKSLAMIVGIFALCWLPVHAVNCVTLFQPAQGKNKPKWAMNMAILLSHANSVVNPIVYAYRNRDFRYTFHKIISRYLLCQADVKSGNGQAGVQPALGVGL
# Source text: as §1
# [4] = target: T3, beta 2 (Homo sapiens, UniProt P07550); test: BioPrint panel: beta 2 (h) (agonist); type: binding; settings: 1 micromolar, read-out: percentage of inhibition of activity
# T3 construct: purchased Eurofins Pharma Discovery Services (KinaseProfiler; Cerep BioPrint panel)
# Source text: as §1
# [5] = target: T4, CB2 (Homo sapiens, UniProt P34972); test: BioPrint panel: CB2 (h) (agonist); type: binding; settings: 1 micromolar, read-out: percentage of inhibition of activity
# T4 construct: purchased Eurofins Pharma Discovery Services (KinaseProfiler; Cerep BioPrint panel)
# Source text: as §1
# [6] = target: T5, CCK1 (CCKA) (Homo sapiens, UniProt P32238); test: BioPrint panel: CCK1 (CCKA) (h) (agonist); type: binding; settings: 1 micromolar, read-out: percentage of inhibition of activity
# T5 construct: purchased Eurofins Pharma Discovery Services (KinaseProfiler; Cerep BioPrint panel)
# Source text: as §1
# [7] = target: T6, D1 (Homo sapiens, UniProt P21728); test: BioPrint panel: D1 (h) (antagonist); type: binding; settings: 1 micromolar, read-out: percentage of inhibition of activity
# T6 construct: purchased Eurofins Pharma Discovery Services (KinaseProfiler; Cerep BioPrint panel)
# T6 sequence (P21728 whole entry): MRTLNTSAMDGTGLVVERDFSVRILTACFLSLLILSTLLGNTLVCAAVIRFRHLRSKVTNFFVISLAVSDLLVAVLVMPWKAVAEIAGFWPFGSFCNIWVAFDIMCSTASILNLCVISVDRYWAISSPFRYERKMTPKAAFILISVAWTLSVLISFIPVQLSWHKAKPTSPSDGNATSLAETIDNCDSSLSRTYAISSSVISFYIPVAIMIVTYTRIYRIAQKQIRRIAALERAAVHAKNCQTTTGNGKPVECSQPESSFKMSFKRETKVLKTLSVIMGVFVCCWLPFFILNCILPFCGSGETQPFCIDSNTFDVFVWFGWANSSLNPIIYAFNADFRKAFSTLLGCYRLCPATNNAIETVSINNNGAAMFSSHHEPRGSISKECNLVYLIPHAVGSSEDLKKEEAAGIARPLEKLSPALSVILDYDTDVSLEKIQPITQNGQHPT
# Source text: as §1
# [8] = target: T7, D3 (Homo sapiens, UniProt P35462); test: BioPrint panel: D3 (h) (antagonist); type: binding; settings: 1 micromolar, read-out: percentage of inhibition of activity
# T7 construct: purchased Eurofins Pharma Discovery Services (KinaseProfiler; Cerep BioPrint panel)
# Source text: as §1
# [9] = target: T8, ETB (Homo sapiens, UniProt P24530); test: BioPrint panel: ETB (h) (agonist); type: binding; settings: 1 micromolar, read-out: percentage of inhibition of activity
# T8 construct: purchased Eurofins Pharma Discovery Services (KinaseProfiler; Cerep BioPrint panel)
# T8 sequence (P24530 27-442): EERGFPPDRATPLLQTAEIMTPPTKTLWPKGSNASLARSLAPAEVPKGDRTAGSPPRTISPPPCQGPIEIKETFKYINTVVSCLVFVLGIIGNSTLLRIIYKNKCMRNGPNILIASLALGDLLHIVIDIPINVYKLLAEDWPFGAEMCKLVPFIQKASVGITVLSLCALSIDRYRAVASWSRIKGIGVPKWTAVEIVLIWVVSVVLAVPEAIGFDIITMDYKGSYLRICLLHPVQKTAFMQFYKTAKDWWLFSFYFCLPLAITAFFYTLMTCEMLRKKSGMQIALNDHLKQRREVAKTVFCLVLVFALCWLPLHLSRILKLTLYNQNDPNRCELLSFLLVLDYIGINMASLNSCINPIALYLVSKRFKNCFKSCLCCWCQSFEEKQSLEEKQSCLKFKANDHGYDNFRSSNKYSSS
# Source text: as §1
# [10] = target: T9, GABAB(1b) (Homo sapiens, UniProt Q9UBS5); test: BioPrint panel: GABAB(1b) (h) (antagonist); type: binding; settings: 1 micromolar, read-out: percentage of inhibition of activity
# T9 construct: purchased Eurofins Pharma Discovery Services (KinaseProfiler; Cerep BioPrint panel)
# Source text: as §1
# [11] = target: T10, glucagon (Homo sapiens, UniProt P47871); test: BioPrint panel: glucagon (h) (agonist); type: binding; settings: 1 micromolar, read-out: percentage of inhibition of activity
# T10 construct: purchased Eurofins Pharma Discovery Services (KinaseProfiler; Cerep BioPrint panel)
# T10 sequence (P47871 26-477): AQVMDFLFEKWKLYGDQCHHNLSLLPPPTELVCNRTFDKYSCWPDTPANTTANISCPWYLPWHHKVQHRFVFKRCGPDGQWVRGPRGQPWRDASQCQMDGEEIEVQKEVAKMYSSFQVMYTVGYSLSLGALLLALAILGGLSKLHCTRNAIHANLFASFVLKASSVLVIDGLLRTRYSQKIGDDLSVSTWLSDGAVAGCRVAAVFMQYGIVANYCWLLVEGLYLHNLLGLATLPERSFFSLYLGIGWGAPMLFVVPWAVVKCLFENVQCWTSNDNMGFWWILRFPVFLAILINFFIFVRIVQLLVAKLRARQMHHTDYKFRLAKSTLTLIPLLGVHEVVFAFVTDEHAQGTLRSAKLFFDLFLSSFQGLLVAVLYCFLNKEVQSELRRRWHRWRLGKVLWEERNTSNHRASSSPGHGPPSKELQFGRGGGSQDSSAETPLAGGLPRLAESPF
# Source text: as §1
# [12] = test system: AMPA; test: BioPrint panel: AMPA (agonist); type: binding; settings: 1 micromolar
# Source text: as §1
# [13] = target: T11, H3 (Homo sapiens, UniProt Q9Y5N1); test: BioPrint panel: H3 (h) (agonist); type: binding; settings: 1 micromolar, read-out: percentage of inhibition of activity
# T11 construct: purchased Eurofins Pharma Discovery Services (KinaseProfiler; Cerep BioPrint panel)
# Source text: as §1
# [14] = target: T12, BLT1 (LTB4) (Homo sapiens, UniProt Q15722); test: BioPrint panel: BLT1 (LTB4) (h) (agonist); type: binding; settings: 1 micromolar, read-out: percentage of inhibition of activity
# T12 construct: purchased Eurofins Pharma Discovery Services (KinaseProfiler; Cerep BioPrint panel)
# Source text: as §1
# [15] = target: T13, CysLT1 (LTD4) (Homo sapiens, UniProt Q9Y271); test: BioPrint panel: CysLT1 (LTD4) (h) (agonist); type: binding; settings: 1 micromolar, read-out: percentage of inhibition of activity
# T13 construct: purchased Eurofins Pharma Discovery Services (KinaseProfiler; Cerep BioPrint panel)
# T13 sequence (Q9Y271 whole entry): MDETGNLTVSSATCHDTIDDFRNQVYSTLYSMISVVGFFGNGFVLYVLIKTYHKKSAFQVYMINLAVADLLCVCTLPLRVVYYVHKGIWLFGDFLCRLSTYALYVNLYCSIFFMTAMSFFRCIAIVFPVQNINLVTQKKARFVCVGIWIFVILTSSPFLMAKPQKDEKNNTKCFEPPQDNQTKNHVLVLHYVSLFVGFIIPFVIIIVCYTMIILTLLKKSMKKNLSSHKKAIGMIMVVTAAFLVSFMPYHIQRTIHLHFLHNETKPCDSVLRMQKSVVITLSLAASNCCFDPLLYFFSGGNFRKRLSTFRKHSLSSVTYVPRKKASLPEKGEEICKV
# Source text: as §1
# [16] = target: T14, M1 (Homo sapiens, UniProt P11229); test: BioPrint panel: M1 (h) (antagonist); type: binding; settings: 1 micromolar, read-out: percentage of inhibition of activity
# T14 construct: purchased Eurofins Pharma Discovery Services (KinaseProfiler; Cerep BioPrint panel)
# Source text: as §1
# [17] = target: T15, mu (MOP) (Homo sapiens, UniProt P35372); test: BioPrint panel: mu (MOP) (h) (agonist); type: binding; settings: 1 micromolar, read-out: percentage of inhibition of activity
# T15 construct: purchased Eurofins Pharma Discovery Services (KinaseProfiler; Cerep BioPrint panel)
# T15 sequence (P35372 whole entry): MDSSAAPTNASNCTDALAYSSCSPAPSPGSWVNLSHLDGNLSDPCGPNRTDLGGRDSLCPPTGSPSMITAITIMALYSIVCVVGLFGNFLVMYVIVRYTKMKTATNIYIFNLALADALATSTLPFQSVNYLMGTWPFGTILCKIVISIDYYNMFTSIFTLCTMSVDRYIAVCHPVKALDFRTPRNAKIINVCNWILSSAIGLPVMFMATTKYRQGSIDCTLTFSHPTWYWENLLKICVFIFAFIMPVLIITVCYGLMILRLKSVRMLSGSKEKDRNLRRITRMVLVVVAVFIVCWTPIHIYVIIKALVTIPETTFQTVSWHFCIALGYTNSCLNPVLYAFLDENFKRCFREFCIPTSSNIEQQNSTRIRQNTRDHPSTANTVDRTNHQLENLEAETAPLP
# Source text: as §1
# [18] = target: T16, PPARgamma (Homo sapiens, UniProt P37231); test: BioPrint panel: PPARgamma (h) (agonist); type: binding; settings: 1 micromolar, read-out: percentage of inhibition of activity
# T16 construct: purchased Eurofins Pharma Discovery Services (KinaseProfiler; Cerep BioPrint panel)
# T16 sequence (P37231 whole entry): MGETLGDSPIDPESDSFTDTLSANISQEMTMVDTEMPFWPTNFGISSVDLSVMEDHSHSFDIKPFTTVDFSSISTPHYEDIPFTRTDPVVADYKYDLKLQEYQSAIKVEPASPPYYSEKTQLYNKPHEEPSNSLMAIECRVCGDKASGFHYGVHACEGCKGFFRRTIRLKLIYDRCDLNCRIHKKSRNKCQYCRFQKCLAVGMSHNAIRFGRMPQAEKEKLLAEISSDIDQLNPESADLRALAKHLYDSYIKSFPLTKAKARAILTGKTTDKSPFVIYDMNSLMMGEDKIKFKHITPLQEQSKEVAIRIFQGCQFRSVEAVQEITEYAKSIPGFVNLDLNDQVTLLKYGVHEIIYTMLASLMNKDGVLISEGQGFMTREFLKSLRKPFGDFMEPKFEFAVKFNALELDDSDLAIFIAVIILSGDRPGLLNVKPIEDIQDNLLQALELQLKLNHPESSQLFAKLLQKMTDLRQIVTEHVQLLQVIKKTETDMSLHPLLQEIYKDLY
# Source text: as §1
# [19] = target: T17, PAF (Homo sapiens, UniProt P25105); test: BioPrint panel: PAF (h) (agonist); type: binding; settings: 1 micromolar, read-out: percentage of inhibition of activity
# T17 construct: purchased Eurofins Pharma Discovery Services (KinaseProfiler; Cerep BioPrint panel)
# T17 sequence (P25105 whole entry): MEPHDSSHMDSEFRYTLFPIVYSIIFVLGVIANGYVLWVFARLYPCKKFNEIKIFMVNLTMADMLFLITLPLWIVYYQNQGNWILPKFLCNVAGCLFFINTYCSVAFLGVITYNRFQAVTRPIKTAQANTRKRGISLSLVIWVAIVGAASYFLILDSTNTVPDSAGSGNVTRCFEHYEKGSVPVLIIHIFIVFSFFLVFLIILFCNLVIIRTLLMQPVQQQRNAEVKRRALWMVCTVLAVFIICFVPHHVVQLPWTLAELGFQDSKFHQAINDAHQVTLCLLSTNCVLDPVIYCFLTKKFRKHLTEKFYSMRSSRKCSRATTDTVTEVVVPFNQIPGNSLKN
# Source text: as §1
# [20] = target: T18, LXRbeta (Homo sapiens, UniProt P55055); test: BioPrint panel: LXRbeta (h) (agonist); type: binding; settings: 1 micromolar, read-out: percentage of inhibition of activity
# T18 construct: purchased Eurofins Pharma Discovery Services (KinaseProfiler; Cerep BioPrint panel)
# Source text: as §1
# [21] = target: T19, 5-HT2B (Homo sapiens, UniProt P41595); test: BioPrint panel: 5-HT2B (h) (agonist); type: binding; settings: 1 micromolar, read-out: percentage of inhibition of activity
# T19 construct: purchased Eurofins Pharma Discovery Services (KinaseProfiler; Cerep BioPrint panel)
# T19 sequence (P41595 whole entry): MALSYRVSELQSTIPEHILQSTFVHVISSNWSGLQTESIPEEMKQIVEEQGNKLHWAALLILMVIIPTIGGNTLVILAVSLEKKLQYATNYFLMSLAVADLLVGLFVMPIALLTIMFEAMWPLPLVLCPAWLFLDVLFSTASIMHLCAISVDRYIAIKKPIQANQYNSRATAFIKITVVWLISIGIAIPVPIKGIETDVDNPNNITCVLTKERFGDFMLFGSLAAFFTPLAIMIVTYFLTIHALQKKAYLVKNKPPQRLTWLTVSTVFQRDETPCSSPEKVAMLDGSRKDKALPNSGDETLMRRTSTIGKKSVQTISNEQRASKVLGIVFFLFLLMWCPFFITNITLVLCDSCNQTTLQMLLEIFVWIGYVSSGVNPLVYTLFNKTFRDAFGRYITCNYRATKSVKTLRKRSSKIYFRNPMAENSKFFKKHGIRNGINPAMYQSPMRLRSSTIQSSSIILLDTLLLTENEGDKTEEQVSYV
# Source text: as §1
# [22] = target: T20, 5-HT3 (Homo sapiens, UniProt P46098); test: BioPrint panel: 5-HT3 (h) (antagonist); type: binding; settings: 1 micromolar, read-out: percentage of inhibition of activity
# T20 construct: purchased Eurofins Pharma Discovery Services (KinaseProfiler; Cerep BioPrint panel)
# Source text: as §1
# [23] = target: T21, UT (Homo sapiens, UniProt Q9UKP6); test: BioPrint panel: UT (h) (agonist); type: binding; settings: 1 micromolar, read-out: percentage of inhibition of activity
# T21 construct: purchased Eurofins Pharma Discovery Services (KinaseProfiler; Cerep BioPrint panel)
# Source text: as §1
# [24] = target: T22, V1a (Homo sapiens, UniProt P37288); test: BioPrint panel: V1a (h) (agonist); type: binding; settings: 1 micromolar, read-out: percentage of inhibition of activity
# T22 construct: purchased Eurofins Pharma Discovery Services (KinaseProfiler; Cerep BioPrint panel)
# Source text: as §1
# [25] = test system: Ca2+ channel (L, diltiazem site); test: BioPrint panel: Ca2+ channel (L, diltiazem site)(antagonist); type: binding; settings: 1 micromolar
# Source text: as §1
# [26] = target: T23, norepinephrine transporter (Homo sapiens, UniProt P23975); test: BioPrint panel: norepinephrine transporter (h) (antagonist); type: binding; settings: 1 micromolar, read-out: percentage of inhibition of activity
# T23 construct: purchased Eurofins Pharma Discovery Services (KinaseProfiler; Cerep BioPrint panel)
# Source text: as §1
# [27] = test system: GABA transporter; test: BioPrint panel: GABA transporter (antagonist); type: binding; settings: 1 micromolar
# Source text: as §1
# [28] = target: T24, 5-HT transporter (Homo sapiens, UniProt P31645); test: BioPrint panel: 5-HT transporter (h) (antagonist); type: binding; settings: 1 micromolar, read-out: percentage of inhibition of activity
# T24 construct: purchased Eurofins Pharma Discovery Services (KinaseProfiler; Cerep BioPrint panel)
# T24 sequence (P31645 whole entry): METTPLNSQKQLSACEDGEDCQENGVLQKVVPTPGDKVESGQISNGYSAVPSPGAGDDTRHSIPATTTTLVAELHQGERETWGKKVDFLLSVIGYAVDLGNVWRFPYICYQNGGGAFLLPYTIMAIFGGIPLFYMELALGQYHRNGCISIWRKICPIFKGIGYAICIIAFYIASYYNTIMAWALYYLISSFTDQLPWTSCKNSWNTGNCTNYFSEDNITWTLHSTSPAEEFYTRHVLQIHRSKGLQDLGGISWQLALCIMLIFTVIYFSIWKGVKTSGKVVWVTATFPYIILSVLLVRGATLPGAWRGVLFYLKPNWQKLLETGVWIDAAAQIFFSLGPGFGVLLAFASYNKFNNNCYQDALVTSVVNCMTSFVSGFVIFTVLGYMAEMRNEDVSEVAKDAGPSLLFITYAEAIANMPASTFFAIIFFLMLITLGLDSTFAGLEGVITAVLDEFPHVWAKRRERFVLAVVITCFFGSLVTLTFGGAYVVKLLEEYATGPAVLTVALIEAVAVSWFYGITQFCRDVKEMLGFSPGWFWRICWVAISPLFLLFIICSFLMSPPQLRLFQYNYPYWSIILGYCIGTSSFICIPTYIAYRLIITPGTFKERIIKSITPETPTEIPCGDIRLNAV
# Source text: as §1
# [29] = target: T25, COX1 (Homo sapiens, UniProt P23219); test: BioPrint panel: COX1 (h); type: biochemical; settings: 1 micromolar, read-out: percentage of inhibition of activity
# T25 construct: purchased Eurofins Pharma Discovery Services (KinaseProfiler; Cerep BioPrint panel)
# Source text: as §1
# [30] = target: PDE2A1 (Homo sapiens, UniProt O00408); test: BioPrint panel: PDE2A1 (h); type: biochemical; settings: 1 micromolar, read-out: percentage of inhibition of activity
# Source text: as §1
# [31] = target: T26, PDE3B (Homo sapiens, UniProt Q13370); test: BioPrint panel: PDE3B (h); type: biochemical; settings: 1 micromolar, read-out: percentage of inhibition of activity
# T26 construct: purchased Eurofins Pharma Discovery Services (KinaseProfiler; Cerep BioPrint panel)
# Source text: as §1
# [32] = target: T27, MMP-2 (Homo sapiens, UniProt P08253); test: BioPrint panel: MMP-2 (h); type: biochemical; settings: 1 micromolar, read-out: percentage of inhibition of activity
# T27 construct: purchased Eurofins Pharma Discovery Services (KinaseProfiler; Cerep BioPrint panel)
# Source text: as §1
# [33] = target: T28, MMP-9 (Homo sapiens, UniProt P14780); test: BioPrint panel: MMP-9 (h); type: biochemical; settings: 1 micromolar, read-out: percentage of inhibition of activity
# T28 construct: purchased Eurofins Pharma Discovery Services (KinaseProfiler; Cerep BioPrint panel)
# Source text: as §1
# [34] = target: T29, CDK2 (cycA) (Homo sapiens, UniProt P24941); test: BioPrint panel: CDK2 (h) (cycA); type: biochemical; settings: 1 micromolar, read-out: percentage of inhibition of activity
# T29 construct: purchased Eurofins Pharma Discovery Services (KinaseProfiler; Cerep BioPrint panel)
# Source text: as §1
# [35] = target: T30, ERK2 (P42mapk) (Homo sapiens, UniProt P28482); test: BioPrint panel: ERK2 (h) (P42mapk); type: biochemical; settings: 1 micromolar, read-out: percentage of inhibition of activity
# T30 construct: purchased Eurofins Pharma Discovery Services (KinaseProfiler; Cerep BioPrint panel)
# Source text: as §1
# [36] = target: T31, IRK (InsR) (Homo sapiens, UniProt P06213); test: BioPrint panel: IRK (h) (InsR); type: biochemical; settings: 1 micromolar, read-out: percentage of inhibition of activity
# T31 construct: purchased Eurofins Pharma Discovery Services (KinaseProfiler; Cerep BioPrint panel)
# Source text: as §1
# [37] = target: T32, p38alpha kinase (Homo sapiens, UniProt Q16539); test: BioPrint panel: p38alpha kinase (h); type: biochemical; settings: 1 micromolar, read-out: percentage of inhibition of activity
# T32 construct: purchased Eurofins Pharma Discovery Services (KinaseProfiler; Cerep BioPrint panel)
# Source text: as §1
# [38] = target: T33, acetylcholinesterase (Homo sapiens, UniProt P22303); test: BioPrint panel: acetylcholinesterase (h); type: biochemical; settings: 1 micromolar, read-out: percentage of inhibition of activity
# T33 construct: purchased Eurofins Pharma Discovery Services (KinaseProfiler; Cerep BioPrint panel)
# Source text: as §1
compound,measurement,setting,value
Cn1cc(-c2cccc(-c3nc(C(=O)NC4C5CC6CC4CC(O)(C6)C5)c(N)nc3N)c2)cn1 (stereo not shown) [compound 4],IC50,"[1]; Homo sapiens, THP-1, M-CSF stimulated, geometric mean, read-out: Activity in reference cell based assay (IC50, μM) (95% CI) Phosphorylation of Akt in THP1 cells",0.099 µM
same,IC50,"[1]; Homo sapiens, THP-1, individual values, read-out: Cellular activity (IC50, mM) Akt phosphorylation in THP1",0.085 µM
same,IC50,"[1]; individual values, read-out: Cellular activity (IC50, mM) Akt phosphorylation in THP1",0.117 µM
same,inhibition at 1 µM,[2],-11.2%
same,inhibition at 1 µM,[3],-3%
same,inhibition at 1 µM,[4],1.6%
same,inhibition at 1 µM,[5],-12.2%
same,inhibition at 1 µM,[6],-0.1%
same,inhibition at 1 µM,[7],2.3%
same,inhibition at 1 µM,[8],-4.2%
same,inhibition at 1 µM,[9],-6.7%
same,inhibition at 1 µM,[10],15.4%
same,inhibition at 1 µM,[11],-8.3%
same,percentage of inhibition of activity,[12],3.7%
same,inhibition at 1 µM,[13],7.4%
same,inhibition at 1 µM,[14],14.2%
same,inhibition at 1 µM,[15],6.1%
same,inhibition at 1 µM,[16],-16.7%
same,inhibition at 1 µM,[17],-2.6%
same,inhibition at 1 µM,[18],3.2%
same,inhibition at 1 µM,[19],-2.1%
same,inhibition at 1 µM,[20],4.1%
same,inhibition at 1 µM,[21],-7.9%
same,inhibition at 1 µM,[22],-0.4%
same,inhibition at 1 µM,[23],7.4%
same,inhibition at 1 µM,[24],-9.3%
same,percentage of inhibition of activity,[25],-22.4%
same,inhibition at 1 µM,[26],26.7%
same,percentage of inhibition of activity,[27],1.1%
same,inhibition at 1 µM,[28],-8.5%
same,inhibition at 1 µM,[29],-4.3%
same,inhibition at 1 µM,[30],6.7%
same,inhibition at 1 µM,[31],5.8%
same,inhibition at 1 µM,[32],13.6%
same,inhibition at 1 µM,[33],-4.4%
same,inhibition at 1 µM,[34],-7.9%
same,inhibition at 1 µM,[35],14.3%
same,inhibition at 1 µM,[36],5%
same,inhibition at 1 µM,[37],1.5%
same,inhibition at 1 µM,[38],6.2%
